The values below come from publication PMC9079302 (The Journal of Biological Chemistry, 2022).

One data set deals with T1, P450 3A5 (Homo sapiens, UniProt P20815).
T1 construct: 4-histidine tag (C); made in house; host or cells: Escherichia coli
Nature of the data set: Type 1 spectral shift equilibrium binding to P450 3A5. The following applies: for concentration dependence of type 1 spectral shift (shape of binding curve): 3A5 binding isotherm; for ΔAmax/[P450]: one-site binding (Equation 2; tiamulin Equation 3). The procedure: The sample cuvette contained 3A5, and the corresponding buffer was in the reference cuvette. The protein buffer consisted of 50 mM sodium Hepes at pH 7.4, 50 mM potassium acetate at pH 7.4, 0.5 mM EDTA, and 20% glycerol. […] The digital spectra were sampled at 1 nm intervals for 1 s. Excel was used to subtract the initial spectrum from subsequent spectra with volume corrections for substrate addition. […] Initial values for Kds and RSRs for each complex are provided. Ligand-free P450 was assigned an RSR of zero. The output includes predicted values for Kds and RSRs, correlations between parameters, and several statistical values for goodness of fit and variances. In addition, graphs of the fit of the data to the model and residuals are produced in several formats.

Data set [1] has as its system 3A5. Set-up: method as in PMID 17200113. The conditions noted are these: type 2 shift, 1 μM P450, biphasic response; cited from earlier work.
For data set [2], the system named is human microsomal testosterone turnover. More on the design: method as in PMID 33137559. The conditions noted are these: human microsomes; cited from earlier work.
Data set [3] relates to 3A5. Set-up: method as in PMID 27485383. The following applies: cited from earlier work.
[4] abbreviates: type 1 spectral shift, one-site binding (Equation 2; tiamulin tight-binding Equation 3), [P450] 0.94–2.03 μM, read-out: Kd.

Structures are written as SMILES. Where “and” joins values, the source holds several entries; their conditions need not be identical. Equal values may be shown once. Read-outs that look alike come from different tables or passages of the source.

T1 sequence (P20815 with tags, fused parts or gaps limits assumed): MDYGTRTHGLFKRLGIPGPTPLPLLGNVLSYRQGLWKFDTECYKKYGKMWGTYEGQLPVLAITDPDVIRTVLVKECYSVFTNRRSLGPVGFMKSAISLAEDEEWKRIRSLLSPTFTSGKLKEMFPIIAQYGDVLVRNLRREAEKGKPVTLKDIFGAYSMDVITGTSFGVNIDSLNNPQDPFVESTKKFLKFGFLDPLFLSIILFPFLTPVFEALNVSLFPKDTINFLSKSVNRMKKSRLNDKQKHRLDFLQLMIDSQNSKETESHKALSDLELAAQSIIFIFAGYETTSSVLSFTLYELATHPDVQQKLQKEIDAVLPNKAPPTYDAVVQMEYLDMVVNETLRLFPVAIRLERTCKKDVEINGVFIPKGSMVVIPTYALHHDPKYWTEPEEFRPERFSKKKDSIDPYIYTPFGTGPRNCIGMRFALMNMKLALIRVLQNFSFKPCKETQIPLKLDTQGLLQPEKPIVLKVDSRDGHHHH

Take `C=C[C@]1(C)C[C@@H](OC(=O)CS[C@@H]2CC[C@@H](N)C[C@H]2O)[C@]2(C)[C@H](C)CC[C@]3(CCC(=O)[C@H]32)[C@@H](C)[C@@H]1O` [Lefamulin]: the “concentration dependence of type 1 spectral shift (shape of binding curve)” value at P450 3A5 is reported as “hyperbolic”. At P450 3A5 (type 1 spectral shift), the “ΔAmax/[P450]” value is given as 0.06 ± 0.00. The Kd on P450 3A5 (setting [4]) was 55.1 ± 7.8 µM.

As to `C=C[C@]1(C)C[C@@H](OC(=O)CS[C@@H]2C[C@H]3CC[C@@H](C2)N3C)[C@]2(C)[C@H](C)CC[C@]3(CCC(=O)[C@H]32)[C@@H](C)[C@@H]1O` [Retapamulin], on P450 3A5, the “concentration dependence of type 1 spectral shift (shape of binding curve)” value is reported as “hyperbolic”. For the same compound, on P450 3A5 (type 1 spectral shift), the “ΔAmax/[P450]” value is on record as 0.09 ± 0.00. For the same compound, the Kd at P450 3A5 (setting [4]) is 16.6 ± 2.4 µM.

In general, Hill coefficient refers to the slope factor of the fitted curve. On to `CC(=O)N1CCN(c2ccc(OCC3COC(Cn4ccnc4)(c4ccc(Cl)cc4Cl)O3)cc2)CC1` (stereo not drawn) [ketoconazole], for which, in the data set with 3A5 [1], the Hill coefficient was 1.4.

Consider `C=C[C@]1(C)C[C@@H](OC(=O)CO)[C@]2(C)[C@H](C)CC[C@]3(CCC(=O)[C@H]32)[C@@H](C)[C@@H]1O` [Pleuromutilin], for which, at P450 3A5, the “concentration dependence of type 1 spectral shift (shape of binding curve)” value is on record as “hyperbolic”. In addition, the “ΔAmax/[P450]” value at P450 3A5 (type 1 spectral shift) turned out to be 0.12 ± 0.02. At P450 3A5 (setting [4]), the Kd is 32.7 ± 4.3 µM.

Usually IC50 stands for the midpoint of a concentration-inhibition curve. For `C=C[C@]1(C)C[C@@H](OC(=O)CSCCN(CC)CC)[C@]2(C)[C@H](C)CC[C@]3(CCC(=O)[C@H]32)[C@@H](C)[C@@H]1O` [Tiamulin], at P450 3A5, the “concentration dependence of type 1 spectral shift (shape of binding curve)” value is recorded as “hyperbolic”. In addition, on P450 3A5 (type 1 spectral shift), the “ΔAmax/[P450]” value was 0.08 ± 0.00. In addition, the Kd on P450 3A5 (setting [4]) was 6.31 ± 1.02 µM. Moreover, the 50% inhibitory concentration (IC50) in data set [2] is 1.69 µM.

On to `CC[C@]1(C)C[C@@H](OC(=O)CSc2n[nH]c(N)n2)[C@]2(C)[C@H](C)CC[C@]3(CCC(=O)[C@H]32)[C@@H](C)[C@@H]1O` [Azamulin, (3aS,4R,5S,6R,8R,9R,9aR,10R)-6-ethyl-5-hydroxy-4,6,9,10-tetramethyl-1-oxodecahydro-3a,9-propanocyclopenta[8]annulen-8-yl [(5-amino-1H-1,2,4-triazol-3-yl)sulfanyl]acetate], for which the Kd at P450 3A5 (Dynafit numerical fit, model 4, [P450] 3.73–4.36 μM, 4 replicates, read-out: K1d (binary complex, two-site sequential binding model)) was 0.6 µM and 0.65 µM; on P450 3A5 (Dynafit numerical fit, model 4, [P450] 3.73–4.36 μM, 4 replicates, read-out: K2d (ternary complex, two-site sequential binding model)) it was 3.4 µM and 3.41 µM; at P450 3A5 (type 1 spectral shift, sigmoidal curve, nominal 4 μM 3A5, n = 4, read-out: Kd (Hill equation fit)), 7.1 ± 0.4 µM. For the same compound, the “time-dependent inhibition of 3A5” value with 3A5 [3] was “either very slow or nonexistent”.
